The values below come from patent US12365674B2, “Inhibitors of histone deacetylase useful for the treatment or prevention of HIV infection” (Merck Sharp & Dohme LLC, priority 2019, dated 2025).

The subject of the assay is KARN cells (Jurkat 2C4). The assay is described as follows: KARN assay (luciferase induction in latently HIV-infected Jurkat 2C4 cells). Type of assay: cell-based. To be noted: ~20 hr, luciferase induction relative to 2 μM SAHA (100%). On the procedure: KARN cells (Jurkat 2C4) were licensed from the laboratory of Dr. John Karn, Case Western Reserve University, School of Medicine. The details regarding this cell line are published (Pearson, R., Kin, Y. K., Hokello, J., Lassen, K., Friedman, J., Tyagi, M., Karn, J., 2008, J. Virol. 82:12291-12303). The cells were grown in a T175 flask (Thermo Fisher, catalog number 159910) in RPMI 1640 containing L-glutamine and phenol red (Life Technologies, catalog number 11875-085), 5% heat inactivated fetal bovine serum (FBS; Life Technologies, catalog number 10100-147) and 100 μg/ml Penicillin-Streptomycin (Life Technologies, catalog number 15140-122) at 37° C. An atmosphere of 5% CO2 and 90% humidity was used for all culture work. Cells were split and reseeded into T175 flasks at a density of 0.2×10^6 cells/ml, in 40 ml of media, every 3-4 days.
Day 1: After the 3-4 day growth period, the cells were transferred from the T175 flask to a 50 ml conical tube and gently pelleted at 1000 rpm for 5 minutes. The supernatant was removed and the cells gently resuspended in assay media RPMI 1640 medium containing L-glutamine but without Phenol Red (Life Technologies, catalog number 11835-030), 5% FBS and 100 μg/ml Penicillin-Streptomycin, and then reseeded such that the original flask is now divided into two T175 flasks. These flasks were returned to the incubator.
Day 2: Cell Preparation: The next day, the cells were transferred from each T175 flask to an individual 50 ml conical tube and gently pelleted at 1000 rpm for 5 minutes. The cells were gently resuspended in assay media (30 ml) and pelleted again. The cell pellets were each resuspended in 30 ml of RPMI 1640 medium containing L-glutamine but without Phenol Red, 100 μg/ml Penicillin-Streptomycin and containing either 0.1% or 5% normal human serum (NHS; Biospecialty, Colmar, PA, catalog number 115-00 Anticoagulant free). The cells were counted using the ViCell (Beckman Coulter, Brea, CA) and diluted as necessary. A Multidrop (Combi, Thermo Scientific, Waltham, MA) with a sterile head was used to seed the cells into the wells of a 384-well solid black plate with lid (Perkin Elmer, Waltham, MA, catalog number 6007660) at 4000 cells/30 μl/well for the 5% NHS assay media and 6000 cells/30 μl/well for 0.1% NHS assay. The plates were covered and returned to the incubator prior to compound addition.
Compound Preparation: Solutions of control inhibitor suberoylanilide hydroxamic acid (SAHA; Sigma, catalog number SML0061) and test compounds in 100% DMSO were titrated into 384-well polypropylene plates (Labcyte, San Jose, CA, catalog number P-05525) using a 20-point dose response and 2-fold dilutions. The reference compounds, DMSO and SAHA were then added to the compound plate. Using the Access system (Labcyte), 120 nl of these inhibitor and control solutions were added to the individual wells of the plates containing the cells, and the plates were then returned to the incubator for ˜20 hr (range from 18-24 hr). The final high concentration for SAHA and the test compounds in the assays was 40 μM. The final DMSO concentration in all wells was 0.4%. The minimal induction reference compound used was DMSO and the maximal induction reference compound used was SAHA (2 μM final concentration in the assay).
Day 3: The luciferase detection reagent was prepared by transferring the contents of one bottle of Steady-Glo buffer to one bottle of Steady-Glo substrate (Steady-Glo Luciferase Assay System, Promega, Madison, […], catalog number E2520), followed by gently mixing until the substrate was thoroughly dissolved and the solution was equilibrated to room temperature. The cell culture assay plates were removed from the incubator and brought to room temperature (15 min). The Steady-Glo Reagent was added to the plates (30 μl/well), which were then covered with a black lid and incubated for 10 minutes at room temperature. […]

Where [1] appears, read: 0.1% normal human serum, 6000 cells/well, read-out: Karn 0.1% NHS.
The mark [2] stands for this setting: 5% normal human serum, 4000 cells/well, read-out: Karn 5% NHS.

Structures are written as SMILES. Where two headings read alike, the source gives them in different places.

As to `COc1nc2ccccc2cc1-c1cnc([C@H](COCCCC(=O)c2ccon2)NC(=O)CN(C)C)[nH]1` [Compound 14, N-{(1R)-2-(4-isoxazol-3-yl-4-oxobutoxy)-1-[5-(2-methoxyquinolin-3-yl)-1H-imidazol-2-yl]ethyl}-N~2~,N~2~- dimethylglycinamide], the EC50 by setting is: under setting [1], 83.8 nM; under setting [2], 252 nM.

Regarding `COc1nc2ccccc2cc1-c1cnc([C@H](COCCCC(=O)c2ncco2)NC(=O)CN(C)C)[nH]1` [Compound 13, N-{(1R)-1-[5-(2-methoxyquinolin-3-yl)-1H-imidazol-2-yl]-2-[4-(1,3-oxazol-2-yl)-4-oxobutoxy]ethyl}-N~2~,N~2~- dimethylglycinamide], the EC50 under setting [1] amounted to 424 nM and the EC50 under setting [2] is 854 nM.

For `COc1nc2ccccc2cc1-c1cnc([C@H](COCCCC(=O)c2ncco2)NC(=O)C23CCN(CC2)CC3)[nH]1` [Compound 12, N-{(1R)-1-[5-(2-methoxyquinolin-3-yl)-1H-imidazol-2-yl]-2-[4-(1,3-oxazol-2-yl)-4-oxobutoxy]ethyl}-1-azabicyclo[2.2.2]octane-4-carboxamide], the EC50 runs as follows: under setting [1], 252 nM; under setting [2], 562 nM.

For `COc1cc2nc(C)ccc2cc1-c1cnc([C@H](COCCCC(=O)c2cc(C)on2)NC(=O)C2CN(C)C2)[nH]1` [Compound 19, N-{(1R)-1-[5-(7-methoxy-2-methylquinolin-6-yl)-1H-imidazol-2-yl]-2-[4-(5-methylisoxazol-3-yl)-4-oxobutoxy]ethyl}-1-methylazetidine-3-carboxamide], the EC50 reads like this: under setting [1], 374 nM; under setting [2], 449 nM.

Turning to `CN1CC(C(=O)N[C@@H](COCCCC(=O)c2ccon2)c2ncc(-c3ccccc3F)[nH]2)C1` [Compound 15, N-[(1R)-1-[5-(2-fluorophenyl)-1H-imidazol-2-yl]-2-(4-isoxazol-3-yl-4-oxobutoxy)ethyl]-1-methylazetidine-3-carboxamide], the EC50 amounted to 539 nM under setting [1] and 548 nM under setting [2].

On to `CN1CC(C(=O)N[C@@H](COCCCC(=O)c2ccon2)c2[nH]c(-c3ccc(F)cc3)nc2Cl)C1` [Compound 16, N-[(1R)-1-[4-chloro-2-(4-fluorophenyl)-1H-imidazol-5-yl]-2-(4-isoxazol-3-yl-4-oxobutoxy)ethyl]-1-methylazetidine-3-carboxamide], for which the EC50 by setting is: under setting [1], 979 nM; under setting [2], 1100 nM.

In the case of `COc1cc2nc(C)ccc2cc1-c1cnc([C@H](COCCCC(=O)c2cc(C)on2)NC(=O)[C@H]2CC23CCN(C)CC3)[nH]1` [Compound 20, (1S)-N-{(1R)-1-[5-(7-methoxy-2-methylquinolin-6-yl)-1H-imidazol-2-yl]-2-[4-(5-methylisoxazol-3-yl)-4-oxobutoxy]ethyl}-6-methyl-6-azaspiro[2.5]octane-1-carboxamide], the EC50 by setting is: under setting [1], 40.5 nM; under setting [2], 55.1 nM.

For `CN1CCC2(CC1)C[C@@H]2C(=O)N[C@@H](COCCCC(=O)c1ccon1)c1[nH]c(-c2ccc(F)cc2)nc1Cl` [Compound 18, (1S)-N-[(1R)-1-[4-chloro-2-(4-fluorophenyl)-1H-imidazol-5-yl]-2-(4-isoxazol-3-yl-4-oxobutoxy)ethyl]-6-methyl-6-azaspiro[2.5]octane-1-carboxamide], the EC50 under setting [1] was found to be 77.7 nM and the EC50 under setting [2] amounted to 109 nM.

`Cc1ccc2cc(-c3cnc([C@H](CSCCCC(=O)c4ncco4)NC(=O)[C@H]4CC45CCN(C)CC5)[nH]3)ccc2n1` [Compound 21, (1S)-6-methyl-N-[(1R)-1-[5-(2-methylquinolin-6-yl)-1H-imidazol-2-yl]-2-{[4-(1,3-oxazol-2-yl)-4-oxobutyl]sulfanyl}ethyl]-6-azaspiro[2.5]octane-1-carboxamide]: the EC50 under setting [1] was determined as 60.7 nM and the EC50 under setting [2] turned out to be 64.4 nM.

Turning to `CCC(=O)CCCOC[C@H](NC(=O)[C@H]1CC12CCN(CC)CC2)c1ncc(-c2cc3ccccc3nc2OC)[nH]1` [Compound 7, (1S)-6-ethyl-N-{(1R)-1-[5-(2-methoxyquinolin-3-yl)-1H-imidazol-2-yl]-2-[(4-oxohexyl)oxy]ethyl}-6-azaspiro[2.5]octane-1-carboxamide], the EC50 under setting [1] was determined as 2350 nM and the EC50 under setting [2] was found to be 3500 nM.

As to `COc1nc2ccccc2cc1-c1cnc([C@@H](N)COCCCC(=O)c2ncco2)[nH]1` [Compound 1, (R)-4-(2-amino-2-(5-(2-methoxyquinolin-3-yl)-1H-imidazol-2-yl)ethoxy)-1-(oxazol-2-yl)butan-1-one], the EC50 under setting [1] is 11700 nM.

In the case of `CCC(=O)CCCOC[C@H](NC(=O)C12CCN(CC1)CC2)c1ncc(-c2cc3ccccc3nc2OC)[nH]1` [Compound 6, N-{(1R)-1-[5-(2-methoxyquinolin-3-yl)-1H-imidazol-2-yl]-2-[(4-oxohexyl)oxy]ethyl}-1-azabicyclo[2.2.2]octane-4-carboxamide], the EC50 reads like this: under setting [1], 8970 nM; under setting [2], 14500 nM.

For the molecule `CN(C)CC(=O)N[C@@H](COCCCC(=O)c1ccon1)c1[nH]c(-c2ccc(F)cc2)nc1Cl` [Compound 17, N-[(1R)-1-[4-chloro-2-(4-fluorophenyl)-1H-imidazol-5-yl]-2-(4-isoxazol-3-yl-4-oxobutoxy)ethyl]-N~2~,N~2~- dimethylglycinamide], the EC50 turned out to be 1490 nM under setting [1] and 2420 nM under setting [2].

For the molecule `COc1nc2ccccc2cc1-c1cnc([C@H](COCCCC(=O)c2ncco2)NC(=O)c2cncs2)[nH]1` [Compound 10, N-{(1R)-1-[5-(2-methoxyquinolin-3-yl)-1H-imidazol-2-yl]-2-[4-(1,3-oxazol-2-yl)-4-oxobutoxy]ethyl}-1,3-thiazole-5-carboxamide], the EC50 under setting [1] worked out at 295 nM and the EC50 under setting [2] stood at 1500 nM.

`CNC(=O)C(=O)CCCOC[C@H](NC(=O)C12CCN(CC1)CC2)c1ncc(-c2cc3ccccc3nc2OC)[nH]1` [Compound 9, N-[(1R)-1-[5-(2-methoxyquinolin-3-yl)-1H-imidazol-2-yl]-2-{[5-(methylamino)-4,5-dioxopentyl]oxy}ethyl]-1-azabicyclo[2.2.2]octane-4-carboxamide]: the EC50 amounted to 232 nM under setting [1] and 466 nM under setting [2].

In the case of `CNC(=O)C(=O)CCCOC[C@H](NC(=O)c1cncs1)c1ncc(-c2cc3ccccc3nc2OC)[nH]1` [Compound 8, N-[(1R)-1-[5-(2-methoxyquinolin-3-yl)-1H-imidazol-2-yl]-2-{[5-(methylamino)-4,5-dioxopentyl]oxy}ethyl]-1,3-thiazole-5-carboxamide], the EC50 is, setting by setting: under setting [1], 80.2 nM; under setting [2], 408 nM.

For `COc1nc2ccccc2cc1-c1cnc([C@H](COCCCC(=O)c2ncco2)NC(=O)[C@H]2CC23CCN(C)CC3)[nH]1` [Compound 11, (1S)-N-{(1R)-1-[5-(2-methoxyquinolin-3-yl)-1H-imidazol-2-yl]-2-[4-(1,3-oxazol-2-yl)-4-oxobutoxy]ethyl}-6-methyl-6-azaspiro[2.5]octane-1-carboxamide], the EC50 by setting is: under setting [1], 59.8 nM; under setting [2], 218 nM.
